Assay results published in paper PMC8512853, “Synthesis, Bioactivity, Pharmacokinetic and Biomimetic Properties of Multi-Substituted Coumarin Derivatives” (Molecules, 2021).

Experiments:
A549 cells = test: MTT cytotoxicity assay, A549; type: cell-based, human; settings: Homo sapiens; A549, 100 μΜ, 24 h; read-out: Cell Toxicity A549 % (100 μΜ)
Method: Furthermore, the coumarin compounds synthesized in this study were also evaluated for their cytotoxicity against A549 (adenocarcinomic human alveolar basal epithelial cells) and A375 (human melanoma) cell lines.
This protocol was used for the evaluation of cell viability and all the cell lines. It must be noted that this assay describes the count of cells that remain alive after the treatment. For the experimental procedure a standard solution of MTT 1mg/mL in PBS was prepared which after filtration ([…] filter (Millipore, Carrigtwohill, Ireland)) was stored in the dark (4–8 °C) until use. In a 96-well plate, HaCaT, A549 and A375 cells were seeded in a number of 30 × 10^4 cells/well for each evaluation series respectively. The cells were incubated (37 °C, 5% CO2) for 24 h, followed by the addition of the tested analogues (100 μM, diluted in DMEM) and another 24-h incubation. Next, appropriate amount of MTT was added in the tested wells and the plate returned to the incubator for the next 4 h for the formation of the formazan crystals. The formazan crystals were then redissolved by adding DMSO (100 μL) and stirring lightly for 40 min, after which the absorbance was measured in a plate reader at 540 nm with a reference absorbance of 720 nm.
All samples were tested in triplicate, against a control (only cells), blank (no cells), and positive control (100 μM standard silibinin solution was used as a “cell-killing” standard).

soybean LOX = biological target: T1, soybean LOX (Glycine max, UniProt P08170); test: Inhibition of soybean LOX; type: biochemical; settings: for inhibition at 100 µM: read-out: Soybean LOX % inhibition (100 μΜ)
T1 construct: purchased Sigma-Aldrich and Fluka
T1 sequence (P08170 1-839): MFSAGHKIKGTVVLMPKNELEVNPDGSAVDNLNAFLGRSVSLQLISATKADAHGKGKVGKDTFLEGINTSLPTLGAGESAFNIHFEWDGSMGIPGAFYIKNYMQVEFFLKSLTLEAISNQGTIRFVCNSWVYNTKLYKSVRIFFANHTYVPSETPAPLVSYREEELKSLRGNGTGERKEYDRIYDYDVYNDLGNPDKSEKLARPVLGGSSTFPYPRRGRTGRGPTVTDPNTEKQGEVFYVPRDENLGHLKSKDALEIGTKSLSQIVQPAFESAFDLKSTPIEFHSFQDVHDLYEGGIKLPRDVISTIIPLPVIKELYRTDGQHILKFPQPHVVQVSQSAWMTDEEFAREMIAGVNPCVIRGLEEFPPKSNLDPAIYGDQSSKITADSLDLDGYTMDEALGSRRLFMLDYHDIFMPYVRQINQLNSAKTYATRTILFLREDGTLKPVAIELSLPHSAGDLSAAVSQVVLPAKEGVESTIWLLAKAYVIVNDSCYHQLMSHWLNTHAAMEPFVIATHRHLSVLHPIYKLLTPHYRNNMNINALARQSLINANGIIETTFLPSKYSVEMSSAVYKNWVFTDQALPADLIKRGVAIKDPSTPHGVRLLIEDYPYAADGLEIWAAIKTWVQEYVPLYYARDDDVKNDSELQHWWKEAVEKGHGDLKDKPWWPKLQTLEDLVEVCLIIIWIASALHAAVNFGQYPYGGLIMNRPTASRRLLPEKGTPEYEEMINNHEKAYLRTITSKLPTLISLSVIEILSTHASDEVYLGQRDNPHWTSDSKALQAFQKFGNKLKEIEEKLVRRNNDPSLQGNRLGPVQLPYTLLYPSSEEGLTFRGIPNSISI
Method: Soybean LOX is a plant enzyme which has been used widely as a prototype for studying the functional and structural properties of the homologous family of lipoxygenases, presenting satisfactory homology with the human 5-LOX [14]. Linoleic acid (LA) is a standard substrate for plant LOXs. In this protocol, all new molecules were tested as inhibitors of soybean LOX as an indication of their anti-inflammatory activity (Table 3).
For the reference sample in a UV cuvette 10 μL of the test sample (100 μM diluted in DMSO), 200 μL LOX solution (diluted in NaCl 0.9%), 100 μL LA (diluted in Tris buffer) and Tris buffer solution (pH 9) were added to a final volume of 1 mL. Respectively for the measurement sample, also in a UV cuvette 10 μL of test sample, 200 μL LOX solution, and Tris buffer solution (pH 9) were added to a final volume of 1mL. Standard and blank samples were prepared in the same way using DMSO (solvent) instead of the tested coumarin analogues.

[1] = biological target: T2, human serum albumin (HSA) (Homo sapiens, UniProt P02768); test: HSA chromatography and estimated plasma protein binding; type: in vitro ADME; settings: for fraction unbound: human, immobilized human serum albumin (HSA) column, Equation (2) from logk10, pH 7.00, read-out: %PPB estimated plasma protein binding (converted); for logk10 (HSA retention factor): pH 7.00, 10% acetonitrile
T2 construct: purchased CHIRAL PAK
Method: The novel coumarin derivatives were also studied using the immobilized protein column HSA. An HSA chromatographic column provides estimates on the binding affinities of chemicals to human serum albumin, which is the most abundant plasma protein and is related to drug efficacy, drug—drug pharmacokinetic interactions, and drug safety. HSA binding can be considered to represent almost the total plasma protein binding of a drug.
Retention factors on the HSA stationary phase were measured using as eluent PBS at pH = 7.00 and a flow rate of 1 mL/min in the presence of 10% acetonitrile.
(2) % PPB=101∗10^logk10/1+10^logk10
The physicochemical and biomimetic properties of the new coumarin analogues were studied using liquid chromatography (HPLC) in 220–230 nm Two types of chromatographic columns were used: (i) immobilized artificial membrane (IAM) ([…].PC.DD.2, Regis Technologies) column and (ii) human serum albumin (HSA) (CHIRAL PAK) column.
The training set consisted of 25 neutral and slightly acidic compounds. Their IAM retention factors were measured at pH 7.40 on a IAM.PC.DD.2 column. The mobile phase consisted of acetonitrile solvent (CH3CN) in various concentrations (10%, 15%, 20%, 25%, 30%) and a flow rate of 3 mL/min was selected. Their HSA retention factors were measured at pH 7.00 on HSA column. The mobile phase consisted of acetonitrile solvent (CH3CN) in 10% concentration and a flow rate of 1 mL/min was selected.
The different pH values (7.00 for HSA and 7.40 for IAM) were measured with an electronic pH meter MP125 and were achieved by preparing suitable buffers of phosphates and chlorides (0.12 g KH2PO4, 0.72 g Na2HPO4·2H2O, 4.00 g NaCl and 0.10 g KCl). Sodium citrate solution was used to determine the dead time, which was deducted from the results at the end of measurements. The elution time of each coumarin analogue was measured at least three times. Retention times were converted into logk values, which represent the logarithm of the retention indexes, using Equation (8). (8) logk=log(tr−t0/t0) where tr is the retention time of the coumarin derivative and t0 is the dead time.

T2 sequence (P02768 25-609): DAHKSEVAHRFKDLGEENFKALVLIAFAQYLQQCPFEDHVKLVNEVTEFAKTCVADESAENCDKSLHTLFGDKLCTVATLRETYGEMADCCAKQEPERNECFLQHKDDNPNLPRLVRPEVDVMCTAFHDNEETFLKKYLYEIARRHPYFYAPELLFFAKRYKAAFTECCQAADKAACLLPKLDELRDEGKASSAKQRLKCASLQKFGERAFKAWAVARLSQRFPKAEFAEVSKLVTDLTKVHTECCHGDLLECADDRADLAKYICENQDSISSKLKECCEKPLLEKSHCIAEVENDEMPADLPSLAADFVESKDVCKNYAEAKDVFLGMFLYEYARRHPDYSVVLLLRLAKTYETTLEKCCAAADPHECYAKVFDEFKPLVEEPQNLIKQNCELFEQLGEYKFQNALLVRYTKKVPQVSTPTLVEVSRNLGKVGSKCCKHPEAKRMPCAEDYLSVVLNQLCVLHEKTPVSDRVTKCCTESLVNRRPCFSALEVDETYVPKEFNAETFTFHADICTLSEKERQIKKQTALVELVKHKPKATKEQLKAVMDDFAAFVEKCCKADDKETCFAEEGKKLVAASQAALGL

Row | Structure (SMILES) | cytotoxicity at 100 µM (A549 cells) [%] | inhibition at 100 µM (soybean LOX) [%] | fraction unbound [1] | logk10 (HSA retention factor) [1] | IC50 (soybean LOX) [µM]
1 | Cc1c(-c2ccc(Cl)cc2)c(=O)oc2cccc(O)c12 [Compound 4c, 3-(4-chlorophenyl)-5-hydroxy-4-methyl-chromen-2-one] | 54.5 | 0.9 | 0.152 | 0.72 | –
2 | Cc1c(-c2ccccc2F)c(=O)oc2cccc(O)c12 [Compound 4d, 3-(2-fluorophenyl)-5-hydroxy-4-methyl-chromen-2-one] | 75.7 | – | 0.152 | 0.72 | 31.6
3 | Cc1c(-c2cccc(F)c2)c(=O)oc2cccc(O)c12 [Compound 4e, 3-(3-fluorophenyl)-5-hydroxy-4-methyl-chromen-2-one] | 52.3 | – | 0.034 | 1.34 | 4.1
4 | Cc1c(-c2ccc(F)cc2)c(=O)oc2cccc(O)c12 [Compound 4f, 3-(4-fluorophenyl)-5-hydroxy-4-methyl-chromen-2-one] | 62.5 | 39.2 | 0.163 | 0.68 | –
5 | Cc1c(-c2ccc(O)cc2)c(=O)oc2ccccc12 [Compound 4h, 3-(4-hydroxyphenyl)-4-methyl-chromen-2-one] | 33.7 | 27.2 | 0.03 | 1.38 | –
6 | Cc1c(-c2ccc(O)cc2)c(=O)oc2ccc(Br)cc12 [Compound 4i, 6-bromo-3-(4-hydroxyphenyl)-4-methyl-chromen-2-one] | 21.7 | 19.3 | 0.043 | 1.26 | –
7 | Cc1c(-c2ccc(O)cc2)c(=O)oc2ccc(Cl)cc12 [Compound 4j, 6-chloro-3-(4-hydroxyphenyl)-4-methyl-chromen-2-one] | 33.5 | 35 | 0.196 | 0.59 | –
